From ChEMBL document CHEMBL5365531, “Structure-Activity Relationship Studies of SARS-CoV-2 Main Protease Inhibitors Containing 4-Fluorobenzothiazole-2-carbonyl Moieties” (J Med Chem, 2023)

Tests used:
[1] = Mutagenicity in Salmonella typhimurium TA1535 assessed as fold increase in number of revertants at 0.152 to 333 ug incubated in presence of S9 fraction by micro-Ames test relative to control; assay type: toxicity, subcellular, Salmonella enterica subsp. enterica serovar Typhimurium; settings: dose 0.152-333 µg
[2] = Mutagenicity in Salmonella typhimurium TA100 assessed as fold increase in number of revertants at 0.152 to 333 ug incubated in absence of S9 fraction by micro-Ames test relative to control; assay type: toxicity, Salmonella enterica subsp. enterica serovar Typhimurium; settings: in vivo; dose 0.152-333 µg
[3] = Mutagenicity in Salmonella typhimurium TA1537 assessed as fold increase in number of revertants at 0.152 to 333 ug incubated in absence of S9 fraction by micro-Ames test relative to control; assay type: toxicity, Salmonella enterica subsp. enterica serovar Typhimurium; settings: in vivo; dose 0.152-333 µg
[4] = Mutagenicity in Salmonella typhimurium TA1535 assessed as fold increase in number of revertants at 0.152 to 333 ug incubated in absence of S9 fraction by micro-Ames test relative to control; assay type: toxicity, Salmonella enterica subsp. enterica serovar Typhimurium; settings: in vivo; dose 0.152-333 µg
[5] = Half life in PXB mouse at 10 mg/kg, iv measured for 24 hrs; assay type: ADME, organism-based; settings: in vivo
[6] = Mutagenicity in Salmonella typhimurium TA98 assessed as inhibition of bacterial growth at 0.152 to 333 ug incubated in absence of S9 fraction by micro-Ames test; assay type: toxicity, Salmonella enterica subsp. enterica serovar Typhimurium; settings: in vivo; dose 0.152-333 µg
SARS-CoV-2 [7] = assay: Antiviral activity against SARS-CoV-2 assessed as fold change relative to YH-53; assay type: functional, Severe acute respiratory syndrome coronavirus 2
[8] = Mutagenicity in Salmonella typhimurium TA1537 assessed as inhibition of bacterial growth at 0.152 to 333 ug incubated in presence of S9 fraction by micro-Ames test; assay type: toxicity, subcellular, Salmonella enterica subsp. enterica serovar Typhimurium; settings: dose 0.152-333 µg
[9] = Mutagenicity in Escherichia coli WP2uvrA assessed as inhibition of bacterial growth at 0.152 to 333 ug incubated in presence of S9 fraction by micro-Ames test; assay type: toxicity, subcellular; settings: dose 0.152-333 µg
[10] = Cytotoxicity against human HepG2 cells; assay type: toxicity, cell-based
[11] = Mutagenicity in Salmonella typhimurium TA100 assessed as inhibition of bacterial growth at 0.152 to 333 ug incubated in absence of S9 fraction by micro-Ames test; assay type: toxicity, Salmonella enterica subsp. enterica serovar Typhimurium; settings: in vivo; dose 0.152-333 µg
[12] = Mutagenicity in Salmonella typhimurium TA100 assessed as inhibition of bacterial growth at 0.152 to 333 ug incubated in presence of S9 fraction by micro-Ames test; assay type: toxicity, subcellular, Salmonella enterica subsp. enterica serovar Typhimurium; settings: dose 0.152-333 µg
SARS-CoV-2 [13] = assay: Antiviral activity against SARS-CoV-2 JPN/TY/WK-521 infected in Vero E6 cells assessed as fold change preincubated with cells for 1 day followed by viral infection and measured after 3 days by qRT-PCR analysis relative to 7-fluoro-N-((S)-1-(((S)-1-(4-fluorobenzo[d]thiazol-2-yl)-1-oxo-3-((S)-2-oxopyrrolidin-3-yl)propan-2-yl)amino)-3,3-dimethyl-1-oxobutan-2-yl)-4-methoxy-1H-indole-2-carboxamide; assay type: functional, Severe acute respiratory syndrome coronavirus 2; settings: time 4 day
SARS-CoV-2 [14] = assay: Antiviral activity against SARS-CoV-2 hCoV-19/Japan/TKYS02037/2022 (omicron BA.2) infected in Vero E6 cells preincubated with cells for 1 day followed by viral infection and measured after 3 days by qRT-PCR analysis; assay type: functional, organism-based; settings: Severe acute respiratory syndrome coronavirus 2, hCoV-19/Japan/TKYS02037/2022 (omicron BA.2), Vero C1008
Vero C1008 = assay: Cytotoxicity against African green monkey Vero E6 cells infected with SARS-CoV-2 WK-521 upto 100 uM incubated for 3 days by immunostaining analysis; assay type: toxicity, cell-based; settings: chlorocebus sabaeus, vero c1008, 72 h, time 3 day
SARS-CoV-2 [15] = assay: Antiviral activity against SARS-CoV-2 infected in Vero E6 cells preincubated with cells for 1 day in absence of HCl followed by viral infection and measured after 3 days by qRT-PCR analysis; assay type: functional, organism-based; settings: Severe acute respiratory syndrome coronavirus 2, Vero C1008
[16] = Cytotoxicity against human HeLa cells expressing ACE2 and TMPRSS2; assay type: toxicity, cell-based
SARS-CoV-2 [17] = assay: Antiviral activity against SARS-CoV-2 JPN/TY/WK-521 infected in Vero E6 cells preincubated with cells for 1 day followed by viral infection and measured after 3 days by qRT-PCR analysis; assay type: functional, organism-based; settings: Severe acute respiratory syndrome coronavirus 2, JPN/TY/WK-521, Vero C1008
[18] = Cytotoxicity against African green monkey Vero E6 cells in presence of P-glycoprotein inhibitor, CP100356; assay type: toxicity, cell-based, Vero C1008; settings: chlorocebus sabaeus, with CP100356 (P-glycoprotein inhibitor)
[19] = Mutagenicity in Salmonella typhimurium TA100 assessed as fold increase in number of revertants at 0.152 to 333 ug incubated in presence of S9 fraction by micro-Ames test relative to control; assay type: toxicity, subcellular, Salmonella enterica subsp. enterica serovar Typhimurium; settings: dose 0.152-333 µg
[20] = Mutagenicity in Salmonella typhimurium TA1537 assessed as inhibition of bacterial growth at 0.152 to 333 ug incubated in absence of S9 fraction by micro-Ames test; assay type: toxicity, Salmonella enterica subsp. enterica serovar Typhimurium; settings: in vivo; dose 0.152-333 µg
[21] = Mutagenicity in Escherichia coli WP2uvrA assessed as inhibition of bacterial growth at 0.152 to 333 ug incubated in absence of S9 fraction by micro-Ames test; assay type: toxicity; settings: in vivo; dose 0.152-333 µg
[22] = Oral bioavailability in PXB mouse at 10 mg/kg measured for 24 hrs; assay type: ADME, organism-based; settings: in vivo
SARS-CoV-2 [23] = assay: Antiviral activity against SARS-CoV-2 JPN/TY/WK-521 infected in Vero E6 cells assessed as inhibition of viral replication preincubated with cells for 1 day followed by viral infection and measured after 3 to 4 days by qRT-PCR analysis; assay type: functional, organism-based; settings: Severe acute respiratory syndrome coronavirus 2, JPN/TY/WK-521, Vero C1008
SARS-CoV-2 [24] = assay: Antiviral activity against SARS-CoV-2 infected in Vero E6 cells preincubated with cells for 1 day in presence of HCl treated compound followed by viral infection and measured after 3 days by qRT-PCR analysis; assay type: functional, organism-based; settings: Severe acute respiratory syndrome coronavirus 2, Vero C1008
MOLT-4 = assay: Cytotoxicity against human MOLT-4 cells assessed as reduction in cell viability at 0.4 uM incubated for 12 days by CCK-8 assay; assay type: toxicity, cell-based; settings: molt-4, 288 h, time 12 day
[25] = Half life in PXB mouse at 10 mg/kg, po measured for 24 hrs; assay type: ADME, organism-based; settings: in vivo
[26] = Mutagenicity in Salmonella typhimurium TA1537 assessed as fold increase in number of revertants at 0.152 to 333 ug incubated in presence of S9 fraction by micro-Ames test relative to control; assay type: toxicity, subcellular, Salmonella enterica subsp. enterica serovar Typhimurium; settings: dose 0.152-333 µg
[27] = Cytotoxicity against human A549-hACE2-TMPRSS2 cells; assay type: toxicity, cell-based
[28] = Mutagenicity in Salmonella typhimurium TA1535 assessed as inhibition of bacterial growth at 0.152 to 333 ug incubated in presence of S9 fraction by micro-Ames test; assay type: toxicity, subcellular, Salmonella enterica subsp. enterica serovar Typhimurium; settings: dose 0.152-333 µg
[29] = Mutagenicity in Escherichia coli WP2uvrA assessed as fold increase in number of revertants at 0.152 to 333 ug incubated in presence of S9 fraction by micro-Ames test relative to control; assay type: toxicity, subcellular; settings: dose 0.152-333 µg
PBMC = assay: Cytotoxicity against human PBMC cells assessed as reduction in cell viability at 0.4 uM incubated for 12 days by CCK-8 assay; assay type: toxicity, cell-based; settings: 288 h, time 12 day
[30] = Mutagenicity in Escherichia coli WP2uvrA assessed as fold increase in number of revertants at 0.152 to 333 ug incubated in absence of S9 fraction by micro-Ames test relative to control; assay type: toxicity; settings: in vivo; dose 0.152-333 µg
[31] = Cytotoxicity against African green monkey Vero E6 cells incubated for 3 days by WST-8 assay; assay type: toxicity, cell-based, Vero C1008; settings: chlorocebus sabaeus, time 3 day
[32] = Mutagenicity in Salmonella typhimurium TA1535 assessed as inhibition of bacterial growth at 0.152 to 333 ug incubated in absence of S9 fraction by micro-Ames test; assay type: toxicity, Salmonella enterica subsp. enterica serovar Typhimurium; settings: in vivo; dose 0.152-333 µg
MT2 = assay: Cytotoxicity against human MT2 cells assessed as reduction in cell viability at 0.4 uM incubated for 12 days by CCK-8 assay; assay type: toxicity, cell-based; settings: mt2, 288 h, time 12 day
[33] = Mutagenicity in Salmonella typhimurium TA98 assessed as inhibition of bacterial growth at 0.152 to 333 ug incubated in presence of S9 fraction by micro-Ames test; assay type: toxicity, subcellular, Salmonella enterica subsp. enterica serovar Typhimurium; settings: dose 0.152-333 µg
[34] = Mutagenicity in Salmonella typhimurium TA98 assessed as fold increase in number of revertants at 0.152 to 333 ug incubated in absence of S9 fraction by micro-Ames test relative to control; assay type: toxicity, Salmonella enterica subsp. enterica serovar Typhimurium; settings: in vivo; dose 0.152-333 µg
[35] = Mutagenicity in Salmonella typhimurium TA98 assessed as fold increase in number of revertants at 0.152 to 333 ug incubated in presence of S9 fraction by micro-Ames test relative to control; assay type: toxicity, subcellular, Salmonella enterica subsp. enterica serovar Typhimurium; settings: dose 0.152-333 µg

## CC(C)(C)[C@H](NC(=O)C(F)(F)F)C(=O)N1C[C@H]2[C@@H]([C@H]1C(=O)N[C@@H](C[C@@H]1CCNC1=O)C(=O)c1nc3c(F)cccc3s1)C2(C)C
[1]
  fold change (FC): > 2
[2]
  fold change (FC): > 2
[3]
  fold change (FC): > 2
[4]
  fold change (FC): > 2
[5]
  half-life: 1.25 h
[6]
  Activity: Non-Toxic
SARS-CoV-2 [7]
  fold change (FC): 0.012
[8]
  Activity: Non-Toxic
[9]
  Activity: Non-Toxic
[10]
  CC50: > 200 µM
[11]
  Activity: Non-Toxic
[12]
  Activity: Non-Toxic
SARS-CoV-2 [13]
  fold change (FC): 0.057
SARS-CoV-2 [14]
  EC50: 0.048 µM
Vero C1008
  Activity: Non-Toxic
SARS-CoV-2 [15]
  EC50: 0.074 µM
[16]
  CC50: > 100 µM
SARS-CoV-2 [17]
  EC50: 0.012 µM
[18]
  CC50: > 100 µM
[19]
  fold change (FC): > 2
[20]
  Activity: Non-Toxic
[21]
  Activity: Non-Toxic
[22]
  bioavailability: 48%
SARS-CoV-2 [23]
  EC50: 0.03 µM
SARS-CoV-2 [24]
  EC50: 0.087 µM
MOLT-4
  Activity: Non-Toxic
[25]
  half-life: 3.82 h
[26]
  fold change (FC): > 2
[27]
  CC50: > 100 µM
[28]
  Activity: Non-Toxic
[29]
  fold change (FC): > 2
PBMC
  Activity: Non-Toxic
[30]
  fold change (FC): > 2
[31]
  CC50 at 72 h: > 100 µM
[32]
  Activity: Non-Toxic
MT2
  Activity: Non-Toxic
[33]
  Activity: Non-Toxic
[34]
  fold change (FC): > 2
[35]
  fold change (FC): > 2
